PubChem BioAssay AID1259407 (Chemical Carcinogenesis Research Information System (CCRIS), 2018)
Active and inactive are the calls of the source. No rule for the calls is given here.

Test system: CCRIS mutagenicity, Ames/micronucleus/aberration tests
Test: CCRIS mutagenicity studies
[1] = Test System: AMES SALMONELLA TYPHIMURIUM, Strain/Indicator: TA98, Metabolic Activation: NONE, Method: PREINCUBATION
[2] = Test System: AMES SALMONELLA TYPHIMURIUM, Strain/Indicator: TA98, Metabolic Activation: RAT, LIVER, S-9, PHENOBARBITAL AND 5,6-BENZOFLAVONE, Method: PREINCUBATION
[3] = Test System: AMES SALMONELLA TYPHIMURIUM, Strain/Indicator: TA100, Metabolic Activation: NONE, Method: PREINCUBATION
[4] = Test System: AMES SALMONELLA TYPHIMURIUM, Strain/Indicator: TA100, Metabolic Activation: RAT, LIVER, S-9, PHENOBARBITAL AND 5,6-BENZOFLAVONE, Method: PREINCUBATION
[5] = Test System: Ames Salmonella typhimurium, Strain/Indicator: TA98, Metabolic Activation: None, Method: Preincubation

NC(=O)c1ccc(N)nc1
mutagenic call (Test System: CHINESE HAMSTER OVARY, Strain/Indicator: CHO/6-THIOGUANINE, Metabolic Activation: NONE): inactive; negative | mutagenic call (Test System: CHINESE HAMSTER OVARY, Strain/Indicator: CHO/6-THIOGUANINE, Metabolic Activation: RAT, LIVER, S-9): inactive; negative | mutagenic call (Test System: CHINESE HAMSTER OVARY, Strain/Indicator: CHO/OUABAIN, Metabolic Activation: NONE): inactive; negative | mutagenic call (Test System: CHINESE HAMSTER OVARY, Strain/Indicator: CHO/OUABAIN, Metabolic Activation: RAT, LIVER, S-9): inactive; negative

O=C(Nc1ccc2c(c1)C=C(S(=O)(=O)O)/C(=N/Nc1ccc(N=Nc3ccc(S(=O)(=O)O)cc3)cc1S(=O)(=O)O)C2=O)Nc1ccc2c(c1)C=C(S(=O)(=O)O)/C(=N/Nc1ccc(N=Nc3ccc(S(=O)(=O)O)cc3)cc1S(=O)(=O)O)C2=O
mutagenic call (Test System: MOUSE LYMPHOMA, Strain/Indicator: L5178Y (TK+/TK-), Metabolic Activation: NONE, Method: SUSPENSION/PLATE): inactive; negative. reevaluation of results: negative | mutagenic call (Test System: MOUSE LYMPHOMA, Strain/Indicator: L5178Y (TK+/TK-), Metabolic Activation: RAT, LIVER, S-9, AROCLOR 1254, Method: SUSPENSION/PLATE): inactive; negative. reevaluation of results: negative

O=C(O)C(Cl)Br (stereo not given)
mutagenic call (End Point: In vivo micronucleus, Test System: Peripheral blood normochromatic erythrocytes, Species: Mouse, Strain/Sex: B6C3F1/Female, Route: Oral): inactive; negative | mutagenic call (End Point: In vivo micronucleus, Test System: Peripheral blood normochromatic erythrocytes, Species: Mouse, Strain/Sex: B6C3F1/Male, Route: Oral): inactive; negative | mutagenic call [1]: inactive; negative | mutagenic call [2]: inactive; negative | mutagenic call [3]: active; positive | mutagenic call [4]: active; positive | mutagenic call (Test System: Ames Salmonella typhimurium, Strain/Indicator: TA98, Metabolic Activation: Hamster, Liver, S9, Aroclor 1254, Method: Preincubation): inactive; negative | mutagenic call [5]: inactive; negative | mutagenic call (Test System: Ames Salmonella typhimurium, Strain/Indicator: TA98, Metabolic Activation: Rat, Liver, S9, Aroclor 1254, Method: Preincubation): inactive; negative | mutagenic call (Test System: Ames Salmonella typhimurium, Strain/Indicator: TA100, Metabolic Activation: Hamster, Liver, S9, Aroclor 1254 (30%), Method: Preincubation): active; positive | mutagenic call (Test System: Ames Salmonella typhimurium, Strain/Indicator: TA100, Metabolic Activation: Rat, Liver, S9, Aroclor 1254 (10%), Method: Preincubation): active; positive | mutagenic call (Test System: Ames Salmonella typhimurium, Strain/Indicator: TA100, Metabolic Activation: Rat, Liver, S9, Aroclor 1254 (30%), Method: Preincubation): active; positive | mutagenic call (Test System: E. coli, Strain/Indicator: WP2 uvrA/pKM101, Metabolic Activation: None, Method: Preincubation): inactive; negative | mutagenic call (Test System: E. coli, Strain/Indicator: WP2 uvrA/pKM101, Metabolic Activation: Rat, Liver, S9, Aroclor 1254 (10%), Method: Preincubation): inactive; negative

O=C(O)c1ccccc1C(=O)O
mutagenic call (End Point: In vitro chromosomal aberrations, Test System: Chinese hamster ovary (CHO) cells, Metabolic Activation: None): inactive; negative | mutagenic call (End Point: In vitro chromosomal aberrations, Test System: Chinese hamster ovary (CHO) cells, Metabolic Activation: Rat, liver, S-9, Aroclor 1254, 10%): inactive; negative | mutagenic call (End Point: In vivo micronucleus, Test System: Bone marrow polychromatic erythrocytes, Species: Mouse, Strain/Sex: ICR/Male, Route: Intraperitoneal): inactive; negative | mutagenic call (Test System: AMES SALMONELLA TYPHIMURIUM, Strain/Indicator: TA97, Metabolic Activation: HAMSTER, LIVER, S-9, AROCLOR 1254, 10%, Method: PREINCUBATION): inactive; negative | mutagenic call (Test System: AMES SALMONELLA TYPHIMURIUM, Strain/Indicator: TA97, Metabolic Activation: HAMSTER, LIVER, S-9, AROCLOR 1254, 30%, Method: PREINCUBATION): inactive; negative | mutagenic call (Test System: AMES SALMONELLA TYPHIMURIUM, Strain/Indicator: TA97, Metabolic Activation: NONE, Method: PREINCUBATION): inactive; negative | mutagenic call (Test System: AMES SALMONELLA TYPHIMURIUM, Strain/Indicator: TA97, Metabolic Activation: RAT, LIVER, S-9, AROCLOR 1254, 10%, Method: PREINCUBATION): inactive; negative | mutagenic call (Test System: AMES SALMONELLA TYPHIMURIUM, Strain/Indicator: TA97, Metabolic Activation: RAT, LIVER, S-9, AROCLOR 1254, 30%, Method: PREINCUBATION): inactive; negative | mutagenic call (Test System: AMES SALMONELLA TYPHIMURIUM, Strain/Indicator: TA97, Metabolic Activation: RAT, LIVER, S-9, PHENOBARBITAL AND 5,6-BENZOFLAVONE, Method: PREINCUBATION): inactive; negative | mutagenic call (Test System: AMES SALMONELLA TYPHIMURIUM, Strain/Indicator: TA98, Metabolic Activation: HAMSTER, LIVER, S-9, AROCLOR 1254, 10%, Method: PREINCUBATION): inactive; negative | mutagenic call (Test System: AMES SALMONELLA TYPHIMURIUM, Strain/Indicator: TA98, Metabolic Activation: HAMSTER, LIVER, S-9, AROCLOR 1254,(30%, Method: PREINCUBATION): inactive; negative | mutagenic call [1]: inactive; negative | mutagenic call (Test System: AMES SALMONELLA TYPHIMURIUM, Strain/Indicator: TA98, Metabolic Activation: RAT, LIVER, S-9, AROCLOR 1254, 10%, Method: PREINCUBATION): inactive; negative | mutagenic call (Test System: AMES SALMONELLA TYPHIMURIUM, Strain/Indicator: TA98, Metabolic Activation: RAT, LIVER, S-9, AROCLOR 1254, 30%, Method: PREINCUBATION): inactive; negative | mutagenic call [2]: inactive; negative | mutagenic call (Test System: AMES SALMONELLA TYPHIMURIUM, Strain/Indicator: TA100, Metabolic Activation: HAMSTER, LIVER, S-9, AROCLOR 1254, 10%, Method: PREINCUBATION): inactive; negative | mutagenic call (Test System: AMES SALMONELLA TYPHIMURIUM, Strain/Indicator: TA100, Metabolic Activation: HAMSTER, LIVER, S-9, AROCLOR 1254, 30%, Method: PREINCUBATION): inactive; negative | mutagenic call [3]: inactive; negative | mutagenic call (Test System: AMES SALMONELLA TYPHIMURIUM, Strain/Indicator: TA100, Metabolic Activation: RAT, LIVER, S-9, AROCLOR 1254, 10%, Method: PREINCUBATION): inactive; negative | mutagenic call (Test System: AMES SALMONELLA TYPHIMURIUM, Strain/Indicator: TA100, Metabolic Activation: RAT, LIVER, S-9, AROCLOR 1254, 30%, Method: PREINCUBATION): inactive; negative | mutagenic call [4]: inactive; negative | mutagenic call (Test System: AMES SALMONELLA TYPHIMURIUM, Strain/Indicator: TA102, Metabolic Activation: NONE, Method: PREINCUBATION): inactive; negative | mutagenic call (Test System: AMES SALMONELLA TYPHIMURIUM, Strain/Indicator: TA102, Metabolic Activation: RAT, LIVER, S-9, PHENOBARBITAL AND 5,6-BENZOFLAVONE, Method: PREINCUBATION): inactive; negative | mutagenic call (Test System: AMES SALMONELLA TYPHIMURIUM, Strain/Indicator: TA104, Metabolic Activation: NONE, Method: PREINCUBATION): inactive; negative | mutagenic call (Test System: AMES SALMONELLA TYPHIMURIUM, Strain/Indicator: TA104, Metabolic Activation: RAT, LIVER, S-9, PHENOBARBITAL AND 5,6-BENZOFLAVONE, Method: PREINCUBATION): inactive; negative | mutagenic call (Test System: AMES SALMONELLA TYPHIMURIUM, Strain/Indicator: TA1535, Metabolic Activation: HAMSTER, LIVER, S-9, AROCLOR 1254, 10%, Method: PREINCUBATION): inactive; negative | mutagenic call (Test System: AMES SALMONELLA TYPHIMURIUM, Strain/Indicator: TA1535, Metabolic Activation: HAMSTER, LIVER, S-9, AROCLOR 1254, 30%, Method: PREINCUBATION): inactive; negative | mutagenic call (Test System: AMES SALMONELLA TYPHIMURIUM, Strain/Indicator: TA1535, Metabolic Activation: NONE, Method: PREINCUBATION): inactive; negative | mutagenic call (Test System: AMES SALMONELLA TYPHIMURIUM, Strain/Indicator: TA1535, Metabolic Activation: RAT, LIVER, S-9, AROCLOR 1254 (10%), Method: PREINCUBATION): inactive; negative | mutagenic call (Test System: AMES SALMONELLA TYPHIMURIUM, Strain/Indicator: TA1535, Metabolic Activation: RAT, LIVER, S-9, AROCLOR 1254, 30%, Method: PREINCUBATION): inactive; negative | mutagenic call [5]: inactive; negative | mutagenic call (Test System: Ames Salmonella typhimurium, Strain/Indicator: TA98, Metabolic Activation: Rat, Liver, S-9, Aroclor 1254, Method: Preincubation): inactive; negative | mutagenic call (Test System: Ames Salmonella typhimurium, Strain/Indicator: TA100, Metabolic Activation: None, Method: Preincubation): inactive; negative | mutagenic call (Test System: Ames Salmonella typhimurium, Strain/Indicator: TA100, Metabolic Activation: Rat, liver, S-9, Aroclor 1254, Method: Preincubation): inactive; negative | mutagenic call (Test System: Ames Salmonella typhimurium, Strain/Indicator: TA102, Metabolic Activation: None, Method: Preincubation): inactive; negative | mutagenic call (Test System: Ames Salmonella typhimurium, Strain/Indicator: TA102, Metabolic Activation: Rat, liver, S-9, Aroclor 1254, Method: Preincubation): inactive; negative | mutagenic call (Test System: Ames Salmonella typhimurium, Strain/Indicator: TA1535, Metabolic Activation: None, Method: Preincubation): inactive; negative | mutagenic call (Test System: Ames Salmonella typhimurium, Strain/Indicator: TA1535, Metabolic Activation: Rat, liver, S-9, Aroclor 1254, Method: Preincubation): inactive; negative | mutagenic call (Test System: Ames Salmonella typhimurium, Strain/Indicator: TA1537, Metabolic Activation: None, Method: Preincubation): inactive; negative | mutagenic call (Test System: Ames Salmonella typhimurium, Strain/Indicator: TA1537, Metabolic Activation: Rat, liver, S-9, Aroclor 1254, Method: Preincubation): inactive; negative
